Measurements published in patent US7405228B2, “Antibacterial cyano-(substituted)-methylenepiperidinophenyl oxazolidinones targeting multiple ribonucleoprotein sites” (Wockhardt Limited, priority 2002, dated 2008).

melting point [°C] | Structure (SMILES)
144 to 146 | CS(=O)(=O)OC[C@H]1CN(c2ccc(N3CCC(C(C#N)CO)CC3)c(F)c2)C(=O)O1 (stereo partly drawn) [Example 154, (R)-{3-[4-(4-(1-cyano-2-hydroxy)-ethylpiperidin-1-yl)-3-fluorophenyl]-2-oxo-oxazolidin-5-ylmethyl}-methanesulphonate]
186 to 188 | N#CC=C1CCN(c2ccc(N3CC(Cn4cc(C#N)nn4)OC3=O)cc2)CC1 (stereo in doubt) [Example 5, (S)-1-{3-[4-(4-cyanomethylidene-piperidin-1-yl)-phenyl]-2-oxo-oxazolidin-5-ylmethyl}-4-cyano-1,2,3-triazole]
210 to 212 | CC(C)(C)CC(=O)NC[C@H]1CN(c2ccc(N3CCC(=CC#N)CC3)c(F)c2)C(=O)O1 [Example 12, (S)-N-{3-[4-(4-cyanomethylidene-piperidin-1-yl)-3-fluorophenyl]-2-oxo-oxazolidin-5-ylmethyl}-3,3-dimethylbutanamide]
76 to 78 | CCOC(=O)c1cnnn1C[C@H]1CN(c2ccc(N3CCC(C(C#N)CO)CC3)c(F)c2)C(=O)O1 (stereo partly drawn) [Example 152, (S)-1-{3-[4-(4-(1-cyano-2-hydroxy)-ethylpiperidin-1-yl)-3-fluorophenyl]-2-oxo-oxazolidin-5-ylmethyl}-5-ethoxycarbonyl-1,2,3-triazole]
155 | N#CC=C1CCN(c2ccc(N3C[C@H](CNC(=O)C4CCCN4)OC3=O)cc2F)CC1 (stereo in doubt) [Example 25, (S)-N-{3-[4-(4-cyanomethylidene-piperidin-1-yl)-3-fluorophenyl]-2-oxo-oxazolidin-5-ylmethyl}-pyrrolidin-2-carboxamide]
64 to 66 | CS(=O)(=O)OC[C@H]1CN(c2ccc(N3CCC(C(C#N)c4nccs4)CC3)c(F)c2)C(=O)O1 (stereo partly drawn) [Example 157, (R)-{3-[4-(4-(1-cyano-1-(1,3-thiazol-2-yl))-methylpiperidin-1-yl)-3-fluorophenyl]-2-oxo-oxazolidin-5-ylmethyl}-methanesulphonate]
112 to 114 | N#CC=C1CCN(c2ccc(N3CC(CN=[N+]=[N-])OC3=O)cc2F)CC1 (stereo in doubt) [Example 16, (S)-{3-[4-(4-cyanomethylidene-piperidin-1-yl)-3-fluorophenyl]-2-oxo-oxazolidin-5-ylmethyl}-azide]
94 to 96 | CC(=O)NC[C@H]1CN(c2ccc(N3CCC(=C(C)C#N)CC3)cc2)C(=O)O1 [Example 72, (S)-N-{3-[4-(4-(1-cyanoethylidene)-piperidin-1-yl)-phenyl]-2-oxo-oxazolidin-5-ylmethyl}-acetamide]
146 to 148 | CC(C)COC(=O)NC[C@H]1CN(c2ccc(N3CC=C(CC#N)C(F)C3)c(F)c2)C(=O)O1 (stereo partly drawn) [Example 163, (S)-N-{3-[4-(4-cyanomethyl-3-fluoro-4,5-dehydropiperidin-1-yl)-3-fluorophenyl]-2-oxo-oxazolidin-5-ylmethyl}-isobutylcarbamate]
178 to 180 | N#CC=C1CCN(c2ccc(N3C[C@H](CNC(=O)CI)OC3=O)cc2F)CC1 [Example 36, (S)-N-{3-[4-(4-cyanomethylidene-piperidin-1-yl)-3-fluorophenyl]-2-oxo-oxazolidin-5-ylmethyl}-iodoacetamide]
142 to 144 | N#CC=C1CCN(c2ccc(N3C[C@H](CNC(=O)C(Cl)(Cl)Cl)OC3=O)cc2F)CC1 [Example 33, (S)-N-{3-[4-(4-cyanomethylidene-piperidin-1-yl)-3-fluorophenyl]-2-oxo-oxazolidin-5-ylmethyl}-trichloroacetamide]
191 to 192 | CNC(=S)NC[C@H]1CN(c2ccc(N3CCC(=CC#N)CC3)c(F)c2)C(=O)O1 [Example 52, (S)-N-{3-[4-(4-cyanomethylidene-piperidin-1-yl)-3-fluorophenyl]-2-oxo-oxazolidin-5-ylmethyl}-methylthiocarbamide]
